Source: publication PMC11435625, “In Vitro Hepatic Clearance Evaluations of Per- and Polyfluoroalkyl Substances (PFAS) across Multiple Structural Categories” (Toxics, 2024)

Legend:
[1] = system: pooled primary human hepatocyte suspensions; test: Hepatic clearance assay (substrate depletion, LC-MS); details: in µL/min/10^6 cells; for Unadj Clint: unadjusted hepatic intrinsic clearance, Table S4; for Unadj Clint / in vitro CLint exp assay: pooled primary human hepatocyte suspensions; for CLint for HTTK: CLint value carried into HTTK/IVIVE
Procedure: The rate of hepatic clearance was determined as previously described for a set of PFAS [11]. Analysis was conducted across two laboratories at the Division of Translational Toxicology (DTT) at the National Institute of Environmental Health Sciences (NIEHS) and the Center for Computational Toxicology and Exposure at the USEPA. The PFAS analyzed in each lab can be found in the Supplementary Materials.
The hepatic clearance assay was performed at both the DTT and EPA laboratories as described below. The pooled human hepatocyte suspensions used in this work were purchased commercially and meet the ethical and scientific standards described in the Human Ethics Rule (40 CFR 26). The suspensions were prepared from hepatocytes obtained from de-identified donors by a commercial vendor.
PFAS stock solutions prepared in DMSO were added to prewarmed William’s E medium to make a 2X working stock solution (2 µM). […] The working stock solutions were then transferred to a 96-well polypropylene plate and placed in an incubator at 37 °C with 5% carbon dioxide prior to adding cells. Cryopreserved pooled primary human hepatocyte suspensions (50-donor pool, mixed gender; BioIVT; Westbury, NY, USA) were thawed and transferred to vials containing hepatocyte thawing medium. After centrifuging for 5–10 min at 100× g, thawing medium was removed, being careful not to disturb the cell pellet. The primary human hepatocytes were then resuspended in pre-warmed complete Williams E medium to achieve a cell density of ~1.0 × 10^6 viable cells/mL as determined by Trypan Blue exclusion. Cells were then added to the 96-well incubation plates containing PFAS to achieve a final density of ~0.5 × 10^6 viable cells/mL and a 1 μM assay concentration (Ctest), then placed in incubator on a shaker at 300 rpm. Triplicate samples were removed from the incubator at time points ranging from 0 to 240 min and quenched with a total crash in 2–3 volumes of ice-cold acetonitrile. Samples were spun at 4000× g for 20 min, and supernatants were transferred to new tubes and stored at <−70 °C until analysis. Media-only (no cell) and/or heat-inactivated hepatocytes were included as negative controls for each chemical to evaluate and estimate chemical loss due to nonmetabolic processes (e.g., hydrolysis). Phenacetin was included in all runs as an assay reference compound; EPA also included propranolol as an additional reference compound.
Assay samples were diluted in mobile phase and analyzed using a Thermo Vanquish UPLC system with a Thermo Hypersil Gold aQ C18 column (100 × 2.1 mm, 1.9 […], Thermo Fisher Scientific Inc.) coupled to a Q Exactive Plus mass spectrometer. Gradient elution was used in the chromatographic separations using water with 20 mM ammonium acetate (mobile phase A) and methanol (mobile phase B), with the following gradient program: 0.5–7 min, 30%–90% B; 7–8 min, 90% B; 8–9 min, 90%–30% B; and 9–10 min, 30% B. The first minute of each injection was diverted to waste to avoid introduction of excessive salts from incubation medium. Analysis was detected in negative ion mode. Samples were quantified against an external, matrix-matched calibration curve. Additional methodologic information is available in Table S2.
To perform SPE, a positive-pressure manifold was employed along with Oasis WAX µElution plates and Oasis HLB 30 mg plates (Waters, Milford, MA, USA) for PFAS and positive-control extraction, respectively. […] The sorbent was then washed with 1% formic acid and water. Samples were eluted in 2% ammonia in methanol for analysis. Similarly, HLB plates were conditioned with methanol and water before sample was loaded onto the sorbent. The wells were then washed with 5% methanol in water and water before elution in methanol. For samples not undergoing SPE, the supernatant of the crashed assay sample was diluted in mobile phase prior to analysis. The first 1.5 min of the run was diverted to waste to prevent salt contamination.

[2] = IVIVE: steady-state concentration (Css), generic HTTK model; design: species or system human; details: for Css (mg/L) / Css (uM): Assuming 1 mg/kg/day dose rate, BW 70 kg; for CLhep: QL 1500000 uL/min; for Fub: fub=fup/(B:P), Fub set to 1 if needed; for CLint: scaled to whole liver: HPGL 110 mill cells/g, Vl 1596 g
Procedure: IVIVE was performed as previously described to calculate human steady-state concentrations (Css). Briefly, experimental plasma protein binding data presented elsewhere were transformed to fraction unbound in blood using blood-to-plasma partitioning values. Experimental Clint values generated here are used in conjunction with relevant liver scalars to scale up to estimate whole liver clearance. […] Once Css values were established, these were used with the PFAS-specific in vitro POD data to calculate the administered equivalent doses (AEDs) using reverse dosimetry. […] The fifth-percentile AC50 value was used to define the in vitro POD. All relevant inputs, scalars, and calculations are provided in Supplementary Information, as indicated in the results.

plasma protein = details: fraction unbound in plasma, input for IVIVE calculations; cited from earlier work

O=C(O)C(F)(F)C(F)(F)F [Perfluoropropanoic acid]
Unadj Clint [1]: 0.59

O=C(O)C(F)(F)C(F)(F)F [Perfluoropropanoic acid (PFPrA)]
CLint for HTTK [1]: 0 | in vitro CLint exp assay [1]: 0 | Css (mg/L) [2]: 0.78 mg/L | Css (uM) [2]: 4.74 µM | CLhep [2]: 0.000 L/h | Fub [2]: 0.5651 | CLint [2]: 0 µL/min | Mean fu (plasma protein): 0.3108

O=C(O)C(F)(F)C(F)(F)C(F)(F)C(F)(F)C(F)(F)C(F)(F)C(F)F [8H-Perfluorooctanoic acid (8H-PFOA)]
CLint for HTTK [1]: 0 | in vitro CLint exp assay [1]: 0 | Css (mg/L) [2]: 114.93 mg/L | Css (uM) [2]: 290.23 µM | CLhep [2]: 0.000 L/h | Fub [2]: 0.003818 | CLint [2]: 0 µL/min | Mean fu (plasma protein): 0.0021

O=C(O)C(F)(F)C(F)(F)C(F)(F)C(F)(F)C(F)(F)C(F)(F)C(F)(F)C(F)(F)C(F)(F)C(F)(F)F [Perfluoroundecanoic acid]
Unadj Clint [1]: 0.00

N.O=C(O)C(F)(F)C(F)(F)C(F)(F)C(F)(F)C(F)(F)C(F)(F)C(F)(F)F [Ammonium perfluorooctanoate]
Unadj Clint [1]: 2.06

O=C(O)C(F)(F)C(F)(F)C(F)(F)C(F)(F)C(F)(F)C(F)(F)C(F)(F)C(F)(F)C(F)(F)C(F)(F)C(F)(F)C(F)(F)F [Perfluorotridecanoic acid]
CLint for HTTK [1]: 0 | in vitro CLint exp assay [1]: 0 | Unadj Clint [1]: 0.00 | Css (mg/L) [2]: 5.57 mg/L | Css (uM) [2]: 8.39 µM | CLhep [2]: 0.000 L/h | Fub [2]: 0.07873 | CLint [2]: 0 µL/min | Mean fu (plasma protein): 0.0433

NS(=O)(=O)C(F)(F)C(F)(F)C(F)(F)C(F)(F)C(F)(F)C(F)(F)C(F)(F)C(F)(F)F [Perfluorooctane sulfonamide (PFOSA)]
CLint for HTTK [1]: 17.84 | in vitro CLint exp assay [1]: 17.84 | Css (mg/L) [2]: 2.16 mg/L | Css (uM) [2]: 4.33 µM | CLhep [2]: 1.313 L/h | Fub [2]: 0.007091 | CLint [2]: 3131990 µL/min | Mean fu (plasma protein): 0.0039

O=C(O)C(F)(F)C(F)(F)C(F)(F)C(F)(F)C(F)(F)C(F)(F)C(F)(F)F [Perfluorooctanoic acid (PFOA)]
CLint for HTTK [1]: 0 | in vitro CLint exp assay [1]: 0 | Css (mg/L) [2]: 241.34 mg/L | Css (uM) [2]: 582.99 µM | CLhep [2]: 0.000 L/h | Fub [2]: 0.001818 | CLint [2]: 0 µL/min | Mean fu (plasma protein): 0.001

O=C(O)C(F)(F)OC(F)(F)C(F)(F)OC(F)(F)F [Perfluoro-3,6-dioxaheptanoic acid]
Unadj Clint [1]: 0.00

O=C(O)C(F)(F)C(F)(F)C(F)(F)OC(F)(F)F
CLint for HTTK [1]: 1.5 | in vitro CLint exp assay [1]: 1.5 | Css (mg/L) [2]: 6.16 mg/L | Css (uM) [2]: 22.00 µM | CLhep [2]: 0.335 L/h | Fub [2]: 0.02127 | CLint [2]: 263340 µL/min | Mean fu (plasma protein): 0.0117

O=S(=O)(O)C(F)(F)C(F)(F)C(F)(F)C(F)(F)C(F)(F)C(F)(F)C(F)(F)C(F)(F)F [Perfluorooctanesulfonate (PFOS-)]
CLint for HTTK [1]: 0 | in vitro CLint exp assay [1]: 0 | Css (mg/L) [2]: 51.35 mg/L | Css (uM) [2]: 102.71 µM | CLhep [2]: 0.000 L/h | Fub [2]: 0.008545 | CLint [2]: 0 µL/min | Mean fu (plasma protein): 0.0047

O=C(O)C(F)(F)C(F)(F)C(F)(F)C(F)(F)F [Perfluoropentanoic acid (PFPeA)]
CLint for HTTK [1]: 0 | in vitro CLint exp assay [1]: 0 | Css (mg/L) [2]: 5.49 mg/L | Css (uM) [2]: 20.78 µM | CLhep [2]: 0.000 L/h | Fub [2]: 0.08 | CLint [2]: 0 µL/min | Mean fu (plasma protein): 0.044

O=C(Cl)C(F)(F)C(F)(F)C(F)(F)C(F)(F)C(F)(F)C(F)(F)C(F)(F)F
CLint for HTTK [1]: 0 | in vitro CLint exp assay [1]: 0 | Css (mg/L) [2]: 3584.17 mg/L | Css (uM) [2]: 8297.84 µM | CLhep [2]: 0.000 L/h | Fub [2]: 0.0001224 | CLint [2]: 0 µL/min | Mean fu (plasma protein): 0.0001

O=S(=O)(Cl)C(F)(F)C(F)(F)C(F)(F)C(F)(F)C(F)(F)C(F)(F)C(F)(F)C(F)(F)F
CLint for HTTK [1]: 0 | in vitro CLint exp assay [1]: 0.00 | Css (mg/L) [2]: 41.78 mg/L | Css (uM) [2]: 80.68 µM | CLhep [2]: 0.000 L/h | Fub [2]: 0.0105 | CLint [2]: 0 µL/min | Mean fu (plasma protein): 0.0109

O=S(=O)([O-])C(F)(F)C(F)(F)C(F)(F)C(F)(F)C(F)(F)C(F)(F)C(F)(F)C(F)(F)C(F)(F)C(F)(F)F.[Na+] [Sodium perfluorodecanesulfonate]
Unadj Clint [1]: 3.39

CNS(=O)(=O)C(F)(F)C(F)(F)C(F)(F)C(F)(F)C(F)(F)C(F)(F)C(F)(F)C(F)(F)F
CLint for HTTK [1]: 23.23 | in vitro CLint exp assay [1]: 23.23 | Css (mg/L) [2]: 0.58 mg/L | Css (uM) [2]: 1.13 µM | CLhep [2]: 4.921 L/h | Fub [2]: 0.02127 | CLint [2]: 4078259 µL/min | Mean fu (plasma protein): 0.0117

O=S(=O)([O-])C(F)(F)C(F)(F)C(F)(F)C(F)(F)C(F)(F)C(F)(F)C(F)(F)C(F)(F)F.[K+] [Potassium perfluorooctanesulfonate]
Unadj Clint [1]: 2.96

O=C(O)CCC(F)(F)C(F)(F)C(F)(F)C(F)(F)C(F)(F)C(F)(F)F [6:3 Fluorotelomer carboxylic acid]
Unadj Clint [1]: 5.05

O=C(O)CCC(F)(F)C(F)(F)C(F)(F)F
CLint for HTTK [1]: 0 | in vitro CLint exp assay [1]: 0 | Css (mg/L) [2]: 4.66 mg/L | Css (uM) [2]: 19.25 µM | CLhep [2]: 0.000 L/h | Fub [2]: 0.09418 | CLint [2]: 0 µL/min | Mean fu (plasma protein): 0.0518

O=C(O)C(F)(F)C(F)(F)C(F)(F)C(F)(F)C(F)(F)C(F)(F)C(F)(F)F [Sodium perfluorooctanoate]
Unadj Clint [1]: 2.34

O=C(O)C(F)(F)C(F)(F)C(F)(F)F [Perfluorobutanoic acid]
Unadj Clint [1]: 0.08

O=C([O-])C(F)(F)C(F)(F)C(F)(F)C(F)(F)C(F)(F)C(F)(F)C(F)(F)F.[K+] [Potassium perfluorooctanoate]
Unadj Clint [1]: 0.00

O=S(=O)(Cl)C(F)(F)C(F)(F)C(F)(F)C(F)(F)C(F)(F)C(F)(F)C(F)(F)C(F)(F)F [Perfluoro-1-octanesulfonyl chloride]
Unadj Clint [1]: 0.00

O=C(O)C(F)(F)C(F)(F)C(F)(F)C(F)(F)C(F)(F)C(F)(F)C(F)(F)C(F)(F)C(F)(F)C(F)(F)C(F)(F)C(F)(F)C(F)(F)F [Perfluorotetradecanoic acid]
Unadj Clint [1]: 0.00

O=C(O)C(F)(F)C(F)(F)C(F)(F)OC(F)(F)F [Perfluoro(4-methoxybutanoic) acid]
Unadj Clint [1]: 1.50

O=S(=O)([O-])C(F)(F)C(F)(F)C(F)(F)C(F)(F)F.[K+] [Potassium perfluorobutanesulfonate]
Unadj Clint [1]: 0.00

O=C(O)C(F)(F)C(F)(F)C(F)F [4H-Perfluorobutanoic acid]
Unadj Clint [1]: 0.90
